Test: In vivo pharmacokinetics of 14C-radiolabelled compounds after IV dosing (plasma and urine radioactivity)
Parameters: species or system male Sprague Dawley rats
Details: rat
Protocol: All animal experimental protocols were approved by the Monash Institute of Pharmaceutical Sciences Animal Ethics Committee, Monash University, Parkville, VIC, Australia. Male Sprague Dawley rats (250–350 g) were used. Animals were maintained on a 12 h light/dark cycle at all times and after transport were acclimatized for 7 days at the facility prior to in vivo studies. […] Urine samples were collected at the 24 h timepoint, and a 50 μL of the sample was transferred to a vial, 4 mL of Ultima Gold added and counted using the scintillator. A blank urine sample prior to dosage was also collected and analyzed to account for background radiation. The pharmacokinetic parameters were determined using non-compartmental analysis with Excel software using the PK Solver add-in (NCA IV Bolus model). […] AUC0-t, elimination half-life (t1/2), volume of distribution at steady state (Vd ss), and clearance rate (Cl) were calculated with this approach. For the linear compound, the 1440 min timepoint was omitted from parameter fitting due to the very low radioactivity for this measurement. The ^14C-radiolabeled compounds were injected intravenously into male Sprague-Dawley rats at a nominal dose of radioactivity (1 μCi, varying 0.82–2.78 mg dose of the sample) and blood samples taken over the course of 24 h to monitor the plasma concentration time profiles.

Substance | Cl (clearance rate)
(PNAM50-co-NAS2.5)140 [BB] | 0.342 ± 0.102 mL h^–1
PNAM100-co-NAS5 [linear] | 16.9 ± 0.91 mL h^–1

From paper PMC9198979, “Polymeric Nanotubes as Drug Delivery Vectors—Comparison of Covalently and Supramolecularly Assembled Constructs” (Biomacromolecules, 2022)
